Laboratory results reported in PubChem BioAssay (NCI).
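Five concentrations, 48 hours, 96-well plates. TGI marks complete inhibition of growth.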

What was measured:
Assay in all cases: growth of human tumour cells (NCI), 48 h
[1] = test system: SR leukemia
[2] = test system: SNB-75 CNS
[3] = test system: NCI-H23 lung
[4] = test system: OVCAR-4 ovarian
[5] = test system: COLO 205 colon
[6] = test system: KM12 colon
[7] = test system: SK-MEL-2 melanoma
[8] = test system: SF-539 CNS
[9] = test system: HOP-18 NSCLC
[10] = test system: SF-295 CNS
[11] = test system: HCT-15 colon
[12] = test system: UACC-257 melanoma
[13] = test system: OVCAR-8 ovarian
[14] = test system: HT29 colon
[15] = test system: SF-268 CNS
[16] = test system: HL-60(TB) leukemia
[17] = test system: OVCAR-5 ovarian
[18] = test system: NCI-H460 lung
[19] = test system: DMS 273 small cell lung
[20] = test system: 786-0 renal
[21] = test system: CCRF-CEM leukemia
[22] = test system: TK-10 renal
[23] = test system: SNB-78 CNS
[24] = test system: DMS 114 small cell lung
[25] = test system: A549 NSCLC
[26] = test system: SK-MEL-28 melanoma
[27] = test system: LXFL 529 NSCLC
[28] = test system: M19-MEL melanoma
[29] = test system: HOP-92 NSCLC
[30] = test system: SK-OV-3 ovarian
[31] = test system: M14 melanoma
[32] = test system: RXF 393 renal
[33] = test system: SK-MEL-5 melanoma
[34] = test system: ACHN renal
[35] = test system: HOP-62 NSCLC
[36] = test system: EKVX NSCLC
[37] = test system: KM20L2 colon
[38] = test system: IGROV1 ovarian
[39] = test system: XF 498 CNS
[40] = test system: MALME-3M melanoma
[41] = test system: OVCAR-3 ovarian
[42] = test system: HCT-116 colon
[43] = test system: RPMI-8226 leukemia
[44] = test system: NCI-H226 lung
[45] = test system: SN12C renal
[46] = test system: MOLT-4 leukemia
[47] = test system: LOX IMVI melanoma
[48] = test system: UACC-62 melanoma
[49] = test system: U251 CNS
[50] = test system: NCI-H522 lung
[51] = test system: K-562 leukemia
[52] = test system: SW-620 colon
[53] = test system: CAKI-1 renal
[54] = test system: SNB-19 CNS
[55] = test system: HCC-2998 colon
[56] = test system: A498 renal
[57] = test system: DLD-1 colon
[58] = test system: UO-31 renal
[59] = test system: RXF-631 renal

COc1ccccc1/C=C1\CCC(CNc2ccc(Cl)cc2)C1=O (centres undefined)
TGI [1]: 26.5 µM
TGI [2]: 29.9 µM
TGI [3]: 20.8 µM
TGI [4]: 28.2 µM
TGI [5]: > 32.7 µM
TGI [6]: 10 µM
TGI [7]: 26.7 µM
TGI [8]: 16 µM
TGI [9]: 30.2 µM
TGI [10]: 15.4 µM
TGI [11]: 7.31 µM
TGI [12]: 26.7 µM
TGI [13]: 20.7 µM
TGI [14]: 22.9 µM
TGI [15]: 24.2 µM
TGI [16]: 13.9 µM
TGI [17]: 23.6 µM
TGI [18]: 20.9 µM
TGI [19]: 20.2 µM
TGI [20]: 22.2 µM
TGI [21]: 19.7 µM
TGI [22]: 18.6 µM
TGI [23]: 54.5 µM
TGI [24]: 22.5 µM
TGI [25]: 17 µM
TGI [26]: 26.4 µM
TGI [27]: 13.7 µM
TGI [28]: 33.1 µM
TGI [29]: 30.6 µM
TGI [30]: 16.8 µM
TGI [31]: 9.72 µM
TGI [32]: 30.3 µM
TGI [33]: 18.4 µM
TGI [34]: 14.6 µM
TGI [35]: 22.9 µM
TGI [36]: 20.2 µM
TGI [37]: 4.87 µM
TGI [38]: 22.8 µM
TGI [39]: 42.7 µM
TGI [40]: 28.4 µM
TGI [41]: 22.9 µM
TGI [42]: 19.1 µM
TGI [43]: 6.72 µM
TGI [44]: 28.3 µM
TGI [45]: 26.5 µM
TGI [46]: 27.4 µM
TGI [47]: 9.22 µM
TGI [48]: 3.48 µM
TGI [49]: 23.2 µM
TGI [50]: 4.45 µM
TGI [51]: 19 µM
TGI [52]: 20 µM
TGI [53]: 13.6 µM
TGI [54]: 25 µM
TGI [55]: 18.8 µM
TGI [56]: 27 µM
TGI [57]: 17.5 µM
TGI [58]: 16.1 µM

O=C(CC1(O)C(=O)Nc2ccc(Br)cc21)c1ccc(Cl)cc1 (centres undefined)
TGI [2]: 77.7 µM
TGI [3]: > 100 µM
TGI [4]: > 100 µM
TGI [5]: > 100 µM
TGI [6]: > 100 µM
TGI [7]: > 100 µM
TGI [8]: > 100 µM
TGI [9]: > 100 µM
TGI [10]: > 100 µM
TGI [11]: > 100 µM
TGI [12]: 98 µM
TGI [13]: > 100 µM
TGI [14]: > 100 µM
TGI [15]: > 100 µM
TGI [17]: > 100 µM
TGI [18]: > 100 µM
TGI [20]: > 100 µM
TGI [21]: > 100 µM
TGI [22]: > 100 µM
TGI [23]: > 100 µM
TGI [25]: > 100 µM
TGI [26]: > 100 µM
TGI [27]: > 100 µM
TGI [29]: 87.6 µM
TGI [30]: > 100 µM
TGI [31]: > 100 µM
TGI [32]: > 100 µM
TGI [33]: > 100 µM
TGI [34]: > 100 µM
TGI [35]: > 100 µM
TGI [36]: > 100 µM
TGI [59]: > 100 µM
TGI [37]: > 100 µM
TGI [38]: > 100 µM
TGI [40]: > 100 µM
TGI [41]: > 100 µM
TGI [42]: > 100 µM
TGI [43]: > 100 µM
TGI [44]: > 100 µM
TGI [45]: > 100 µM
TGI [46]: > 100 µM
TGI [47]: 38.2 µM
TGI [48]: > 100 µM
TGI [49]: 95.1 µM
TGI [50]: > 100 µM
TGI [51]: > 100 µM
TGI [52]: > 100 µM
TGI [54]: > 100 µM
TGI [56]: > 100 µM
TGI [57]: > 100 µM
TGI [58]: > 100 µM
